One molecule from US20210038730A1, “PEPTIDE NANOFIBERS” (UNIVERSITY OF PORTSMOUTH HIGHER EDUCATION CORPORATION, priority 2018, published 2021) can be followed below.

A value given as a limit tells only on which side of the number the result lay.

Series [1] is described as follows: Circular dichroism, temperature and dilution stability of nanofibers. Type of series: physicochemical. The conditions noted are these: CD, 15 to 50° C., dilutions 1:10-1:100. On the procedure:
Secondary structure was assessed using circular dichroism (CD). TPGnRH solutions (70 or 700 μM) were prepared in aqueous 0.9% sodium chloride and analysed at 20±0.1° C. using Applied Photophysics Pi180 spectropolarimeter (Surrey, UK). For the temperature-dependent studies, the peptide was incubated at a range of temperature (15 to 50° C.) and the spectra were collected at 5° C. intervals. To investigate the effect of dilution, peptide solutions were diluted in 0.9% (w/v) sodium chloride solution at 20° C. Data were collected every 1 nm over the wavelength range of 200-360 nm. X-ray diffraction (XRD) studies were carried out on stalks prepared by suspending drops of TPGnRH solutions (70 or 700 μM) between the ends of the wax-coated capillaries and allowing them to dry at room temperature. Stalks were vertically mounted onto a four-axis goniometer of a FR-E+X-Ray diffractomer (Rigaku, Sevenoaks, UK).

Series [2] can be described thus: In vivo pharmacokinetic study, intravenous. Conditions: mice.
Protocol: At 5 and 60 minutes, mice were killed and the blood and brain were harvested. Blood samples (0.5-0.7 mL per mouse) were collected into evacuated, sterile, spray coated with tripotassium ethylenediamine tetraacetic acid (3.6 mg), medical grade PET tubes. […] Brain was weighted and homogenised with ice-cold PBS (1×, 7.4) using a 3 mL glass homogeniser. Plasma (100 μL) and brain homogenate (˜800 μL) were extracted with equal volumes of ice-cold acetonitrile three times and samples were dried using a centrifugal concentrator (SPD1010 SpeedVac System, ThermoSavant, Renfrewshire, United Kingdom) under vacuum over 2 hours and 4 hours respectively. Samples were orbitally agitated using a SciQuip Microplate Shaker attached to a tube adapter for 1.5-2 mL tubes (10 mm) for 10 minutes prior being centrifuged at 8,000 rpm for 5 minutes. Supernatants were pipetted in 0.2 mL amber vials and was quantified by reverse phase-HPLC. Analysis was conducted on Onyx Monolithic C18 column (4.6 mm×10+100 mm, 5 μm pore size) with a gradient method (Table 13) using an Agilent 1200 Series HPLC system (Agilent Technologies, Cheadle, UK). […] Injection volume was 40 μL, and the detection was performed at 220 nm and 280 nm.
The target in series [3] is T1, GnRH-R on U-87 MG cells (Homo sapiens, UniProt P30968).
T1 construct: endogenous in cells; host or cells: U-87 MG
T1 sequence (P30968 1-328): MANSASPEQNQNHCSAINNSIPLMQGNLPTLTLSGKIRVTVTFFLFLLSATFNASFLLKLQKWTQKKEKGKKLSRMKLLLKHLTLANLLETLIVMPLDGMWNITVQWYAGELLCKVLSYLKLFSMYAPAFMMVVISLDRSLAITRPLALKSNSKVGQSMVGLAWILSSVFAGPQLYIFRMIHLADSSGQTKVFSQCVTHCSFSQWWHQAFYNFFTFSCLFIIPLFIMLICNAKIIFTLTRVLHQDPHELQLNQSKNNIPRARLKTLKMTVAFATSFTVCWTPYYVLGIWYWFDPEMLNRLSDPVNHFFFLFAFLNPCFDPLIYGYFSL
As to the kind of experiment: SMFS blocking experiments with free GnRH-R ligands. It counts as binding. The protocol:
Blocking experiments were performed with different GnRH-R ligands (anti-GnRH-R antibody, Glu-GnRH, goserelin acetate, and TPGnRH). U-87 MG cells were analysed with tips functionalised with TPGnRH nanofibers and then the free ligands were added at a final concentration of 1 μg mL^−1 (anti-GnRH-R antibody) or 50 μg mL^−1 (Glu-GnRH, goserelin acetate and TPGnRH). U-87 MG cells treated with ligands were incubated for, at least, one hour at room temperature, and then the same cells were analysed with the same TPGnRH-functionalised tip at the same location in the cell.

The nature of series [4]: Enzymatic stability in rat liver homogenates. The conditions noted are these: 50% (v/v) rat liver homogenates.
Protocol: (§1) Fresh blood, obtained from adult male Wistar rats, was collected in sterile the 170 I.U. lithium heparin-coated tubes (Vacutainer, BD Bioscience, UK). Blood was centrifuged immediately at 2,000 g for 15 minutes (4° C.) and supernatant was collected and diluted to 50% (v/v) with PBS. Livers and brains were obtained from adult male Wistar rats, and the tissues were blotted to dryness, weighed, sliced into pieces, and homogenised with ice-cold PBS (in 2 mL of buffer g^−1 of tissue) using the glass homogeniser. Then, tissue homogenates were centrifuged at 4,300 g for 1 hour (4° C.) and the supernatants collected. Glioblastoma cell homogenates were prepared using U-87 MG cells. Cells were cultured in Eagle's Minimum Essential Medium (EMEM) supplemented with 10% (v/v) heat-inactivated fetal bovine serum (FBS), 1% (v/v) of non-essential amino acids (NEAA) and 1 mM of sodium pyruvate in T75 flasks with a surface area of 75 cm^2 and maintained in a humidified atmosphere of 5% CO2 at 37° C. Breast cancer cell homogenates were prepared using MDA-MB-231 cells. Cells were cultured in Dulbecco's Modified Eagle Medium (DMEM) supplemented with high levels of glucose (4.5 g/L), 10% (v/v) heat-inactivated fetal bovine serum (FBS), 1% (v/v) of non-essential amino acids (NEAA) and penicillin and streptomycin (500 units/mL) in T75 flasks with a surface area of 75 cm^2 and maintained in a humidified atmosphere of 5% CO2 at 37° C. Media was changed for both cell lines every 3 to 4 days. After reaching confluence, cells were washed twice with Hank's Balanced Salt Solution (HBSS) and incubated with ˜2 mL of TrypLE Enzyme at 37° C. for ˜3 minutes. Then, complete media were added, and cells were centrifuged at 1,000 rpm for 5 minutes in C-28A centrifuge (Boeco, Germany). U-87 MG or MDA-MB-231 cells (˜10×10^6 cells mL^−1) were re-suspended in ice-cold PBS, and homogenised with a 2×5 second pulses with the probe sonicator (UP200S Ultrasonic processor, SciMed, 200 watts, amplitude of 60%). Cell debris were removed by centrifugation at 2,000 rpm for 5 minutes (Jouan B4i, Thermo Scientific, Paisley, UK). Supernatant was collected and stored at −80° C. Total protein concentration in the homogenates was determined using the Bradford assay with bovine serum albumin as a standard. Diluted plasma, tissue or cell homogenates were pre-warmed during ˜30 minutes at 37° C. Peptide stock solutions (Glu-GnRH, goserelin acetate and TPGnRH, 5 mM in PBS, 500 μL) were prepared and added to the homogenate solutions (120 μL). PAX-loaded nanofibers prepared at a ratio of 1:7.36 [PAX:TPGnRH consisting of 3 μmol (2.56 mg mL^−1) of PAX, 22.02 μmol (31.46 mg mL^−1) of TPGnRH], as previously described, and further diluted in PBS to achieve a concentration of 5 mM of TPGnRH and 500 nM of PAX (120 μL) were added to the homogenates. At various time intervals, an aliquot was collected (80 μL) and added to ice-cold ACN (80 μL) to quench the enzymatic activity. Samples were stored at −80° C. for at least 3 hours to maximise protein precipitation. Samples were vortexed for 15 minutes, centrifuged for 15 minutes at 12,000 rpm, and the supernatants were collected and analysed by RP-HPLC.
The nature of series [5]: Enzymatic stability in MDA-MB-231 cell homogenates.
Protocol: as §1
Series [6] deals with hCMEC/D3 cells. As to the kind of experiment: Cytotoxicity (MTT) in blood-brain barrier endothelial cells. Type of series: cell-based, human. Conditions: 3.5-140 μM, 4 and 24 hours. The protocol:
Human brain microvessel endothelial cells (hCMEC/D3) and cerebral astrocytes (SC-1800) were maintained in a humidified atmosphere of 5% CO2, and the medium was refreshed every 2-3 days. hCMEC/D3 cells were cultured in endothelial basal medium-2 (EBM-2) supplemented with the EGM-2 Bullet Kit and 2% (v/v) human serum. SC-1800 were cultured in astrocytes basal medium (ABM) supplemented with AGM Bullet Kit and 3% (v/v) human serum. […] Subsequently, complete growth medium (4 mL) was added and cells were centrifuged using a C-28A centrifuge (Boeco, Hamburg, Germany) at 1,000 rpm for 5 minutes. Supernatant was discarded, and pellet was re-suspended in 1 mL of medium. The cell number was counted using Trypan Blue Exclusion Assay in the Countess II Automated Cell Counter (Thermo Scientific, Paisley, UK). hCMEC/D3 and SC-1800 cells were seeded at 20,000 cells/cm^2 in complete medium and allowed to attach overnight. […] Cell metabolic activity was measured after 4 and 24 hours using (3-(4,5)-dimethylthiazol-2-yl)-2,5-diphenyltetrazolium bromide ([…]) assay. […] Subsequently, DMSO (100 μL) was added to dissolve the formazan crystals and absorbance was measured at 570 and 690 nm. Metabolic activity was calculated by subtracting the absorbance values at 690 nm to 570 nm to remove background, and dividing the values by the control to express as a percentage (%) of the control using the equation below. […]

Where [7] appears, read: human, MDA-MB-231 breast cancer cell homogenate.

On to `CCCCCCCCCCCCCCCC(=O)Oc1ccc(C[C@H](NC(=O)[C@H](CO)NC(=O)[C@H](Cc2c[nH]c3ccccc23)NC(=O)[C@H](Cc2c[nH]cn2)NC(=O)[C@@H](N)CCC(=O)O)C(=O)NCC(=O)N[C@@H](CC(C)C)C(=O)N[C@@H](CCCNC(=N)N)C(=O)N2CCC[C@H]2C(=O)NCC(N)=O)cc1` [TPGnRH, Tyrosine (O-Palmitoyl)-Glu-GnRH], for which the “temperatures at which nanofibers are physically stable” value in series [1] was < 40 °C. Moreover, the tolerability result in series [2] (intravenous 35 mg kg^−1, no immediate signs of toxicity, no gross alterations in liver, spleen, lungs, kidneys) is “well tolerated”. In addition, the dose in blood in series [2] (intravenous, after 1 hour) is recorded as ~6 % of dose. In addition, the “Binding Probability of TPGnRH nanofiber tip to U-87 MG cells” value in series [3] (after pre-incubation with the free ligand named as label (antibody 1 μg mL^−1, peptides 50 μg mL^−1)) came to 4.5%. Besides, the “Binding Probability of TPGnRH nanofiber tip to U-87 MG cells” value in series [3] (before addition of the free ligand named as label (no pre-incubation)) is on record as 14.7%. Further, in series [4] (analyte in brackets of label), the Plateau is 359.3 µg/mL, the kα came out at 0.1678 min⁻¹ and the kβ turned out to be 0.005339 min⁻¹. For the same molecule, the amount remaining at 8 h, 4.03 mM in series [4] (male, Wistar, rat) was ~50%. In series [5] (MDA-MB-231 cell homogenates), this molecule came in with a Plateau of 325.8 µg/mL and a k of 2.224 min⁻¹. Also, in series [5] (setting [7]), the AUC(0-t) at 4.03 mM was 105000 µg·h/mL and the C0 at 4.03 mM was 710 µg/mL. In series [6], the “cytotoxicity (metabolic activity, MTT)” value is reported as “no cytotoxicity”.
